The results in this text go back to US12685735B2 (Foghorn Therapeutics Inc., priority 2020, dated 2026).

The target of test [1] is BRG-1 (Homo sapiens, UniProt P51532). Put plainly: ATPase catalytic activity assay of BRG-1 (ADP-Glo). The test is classed as biochemical. The following applies: ATPase catalytic activity, ADP-Glo; for IC50: read-out: BRG1 IC50 (μM)*; for Emax: read-out: BRG1 Max % Inhibition. A digest of the protocol: (§1)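 Luminescence from ADP formed by BRM or BRG-1 ATPase was detected after a two-step ADP-Glo workup at room temperature. The first step, removing unconsumed ATP, took 40 min; the second, converting ADP to ATP for luciferase, took 60 min.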

The target of test [2] is BRM (Homo sapiens, UniProt P51531). Put plainly: ATPase catalytic activity assay of BRM (ADP-Glo). The following applies: for IC50: read-out: BRM IC50 (μM)*. It counts as biochemical. The gist of the method: as §1
Sequence of BRM (P51531 whole entry): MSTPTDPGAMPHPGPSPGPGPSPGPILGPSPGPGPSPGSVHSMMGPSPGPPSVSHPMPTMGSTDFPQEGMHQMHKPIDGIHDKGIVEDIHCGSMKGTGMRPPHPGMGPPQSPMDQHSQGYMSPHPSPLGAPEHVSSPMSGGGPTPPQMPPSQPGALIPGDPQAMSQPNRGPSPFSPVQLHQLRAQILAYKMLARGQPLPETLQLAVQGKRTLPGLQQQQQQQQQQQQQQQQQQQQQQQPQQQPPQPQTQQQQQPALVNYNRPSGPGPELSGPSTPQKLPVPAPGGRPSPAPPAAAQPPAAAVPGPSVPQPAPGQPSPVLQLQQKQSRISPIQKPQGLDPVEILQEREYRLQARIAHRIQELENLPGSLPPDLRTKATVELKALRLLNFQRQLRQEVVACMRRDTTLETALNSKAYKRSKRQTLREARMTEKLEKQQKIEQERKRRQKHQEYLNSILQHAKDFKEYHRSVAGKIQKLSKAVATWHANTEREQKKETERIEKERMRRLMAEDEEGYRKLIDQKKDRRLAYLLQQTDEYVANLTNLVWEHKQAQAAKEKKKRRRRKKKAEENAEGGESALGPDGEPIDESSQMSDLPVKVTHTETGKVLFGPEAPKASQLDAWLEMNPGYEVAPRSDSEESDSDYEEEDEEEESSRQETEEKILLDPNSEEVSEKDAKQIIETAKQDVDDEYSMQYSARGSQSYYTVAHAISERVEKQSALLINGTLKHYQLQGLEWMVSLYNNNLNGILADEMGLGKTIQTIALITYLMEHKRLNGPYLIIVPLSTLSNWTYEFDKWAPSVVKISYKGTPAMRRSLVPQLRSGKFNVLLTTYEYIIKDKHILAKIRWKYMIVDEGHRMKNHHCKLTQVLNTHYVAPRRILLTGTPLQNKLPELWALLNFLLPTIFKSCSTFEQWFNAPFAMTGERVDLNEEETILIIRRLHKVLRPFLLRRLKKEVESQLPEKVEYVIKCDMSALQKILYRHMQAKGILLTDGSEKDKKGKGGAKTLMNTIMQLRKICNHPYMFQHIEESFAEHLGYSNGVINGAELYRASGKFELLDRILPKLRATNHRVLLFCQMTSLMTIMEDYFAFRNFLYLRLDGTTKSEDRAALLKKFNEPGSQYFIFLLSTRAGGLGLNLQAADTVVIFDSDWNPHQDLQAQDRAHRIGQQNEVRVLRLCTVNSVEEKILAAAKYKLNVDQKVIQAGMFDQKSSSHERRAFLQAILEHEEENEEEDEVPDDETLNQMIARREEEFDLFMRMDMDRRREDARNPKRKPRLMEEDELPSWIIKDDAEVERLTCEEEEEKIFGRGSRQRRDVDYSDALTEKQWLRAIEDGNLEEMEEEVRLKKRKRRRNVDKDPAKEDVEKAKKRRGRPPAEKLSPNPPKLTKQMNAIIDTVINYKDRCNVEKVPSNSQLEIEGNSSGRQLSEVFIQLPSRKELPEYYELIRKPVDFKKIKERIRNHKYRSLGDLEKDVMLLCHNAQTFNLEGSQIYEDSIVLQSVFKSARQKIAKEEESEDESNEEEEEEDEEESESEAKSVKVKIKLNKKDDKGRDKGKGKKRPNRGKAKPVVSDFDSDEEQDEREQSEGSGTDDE

Sequence of BRG-1 (P51532 whole entry): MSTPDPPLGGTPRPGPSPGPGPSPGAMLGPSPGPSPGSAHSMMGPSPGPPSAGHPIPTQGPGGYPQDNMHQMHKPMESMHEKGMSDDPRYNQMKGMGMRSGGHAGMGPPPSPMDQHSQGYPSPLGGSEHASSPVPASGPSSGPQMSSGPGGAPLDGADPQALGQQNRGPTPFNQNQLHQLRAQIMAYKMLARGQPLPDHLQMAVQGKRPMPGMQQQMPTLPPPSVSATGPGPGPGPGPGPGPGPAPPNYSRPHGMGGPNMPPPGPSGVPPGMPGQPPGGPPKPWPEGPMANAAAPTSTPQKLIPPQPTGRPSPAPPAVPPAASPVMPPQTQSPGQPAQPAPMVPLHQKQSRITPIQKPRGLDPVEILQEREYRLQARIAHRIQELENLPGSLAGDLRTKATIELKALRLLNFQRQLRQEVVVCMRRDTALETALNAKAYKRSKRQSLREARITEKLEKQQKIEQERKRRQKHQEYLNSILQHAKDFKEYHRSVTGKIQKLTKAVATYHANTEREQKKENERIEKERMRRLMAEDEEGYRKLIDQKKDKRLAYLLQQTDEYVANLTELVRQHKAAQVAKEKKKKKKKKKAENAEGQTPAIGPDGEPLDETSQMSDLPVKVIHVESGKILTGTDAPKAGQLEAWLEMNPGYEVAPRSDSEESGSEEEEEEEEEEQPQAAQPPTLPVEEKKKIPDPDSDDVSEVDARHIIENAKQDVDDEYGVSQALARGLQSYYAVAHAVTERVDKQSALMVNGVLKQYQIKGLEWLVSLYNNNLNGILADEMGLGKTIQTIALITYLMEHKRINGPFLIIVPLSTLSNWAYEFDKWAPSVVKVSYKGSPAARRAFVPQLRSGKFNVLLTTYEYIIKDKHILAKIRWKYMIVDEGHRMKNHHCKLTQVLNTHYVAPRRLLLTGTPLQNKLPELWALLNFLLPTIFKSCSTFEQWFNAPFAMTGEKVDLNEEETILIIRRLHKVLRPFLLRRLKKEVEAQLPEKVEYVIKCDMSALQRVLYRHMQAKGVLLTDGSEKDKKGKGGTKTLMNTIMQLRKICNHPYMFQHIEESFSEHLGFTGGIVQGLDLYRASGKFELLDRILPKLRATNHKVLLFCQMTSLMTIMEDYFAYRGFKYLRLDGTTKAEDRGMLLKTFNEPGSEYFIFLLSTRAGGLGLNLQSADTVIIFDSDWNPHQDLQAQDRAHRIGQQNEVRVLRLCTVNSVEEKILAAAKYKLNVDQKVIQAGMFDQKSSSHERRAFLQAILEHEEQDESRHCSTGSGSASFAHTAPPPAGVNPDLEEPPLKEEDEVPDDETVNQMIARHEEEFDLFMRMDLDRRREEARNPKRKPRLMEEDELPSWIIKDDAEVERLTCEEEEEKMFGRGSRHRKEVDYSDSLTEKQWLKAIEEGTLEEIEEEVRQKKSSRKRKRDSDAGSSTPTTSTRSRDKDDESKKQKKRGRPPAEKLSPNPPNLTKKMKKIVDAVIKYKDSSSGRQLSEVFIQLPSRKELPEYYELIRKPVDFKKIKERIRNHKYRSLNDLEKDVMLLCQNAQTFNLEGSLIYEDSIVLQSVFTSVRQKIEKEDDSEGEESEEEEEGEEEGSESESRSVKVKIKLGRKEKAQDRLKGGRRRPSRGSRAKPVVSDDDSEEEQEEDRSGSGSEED

Consider `CC(C)(/C(N)=N\O)c1cccc(C(=O)NCC(=O)Nc2nc(-c3cccc(-c4ccncc4)c3)cs2)c1` [Compound 83, (E)-3-(1-amino-1-(hydroxyimino)-2-methylpropan-2-yl)-N-(2-oxo-2-((4-(3-(pyridin-4-yl)phenyl)thiazol-2-yl)amino)ethyl)benzamide], for which, in test [1], the IC50 was above 5 µM and the Emax was above 50%. In addition, in test [2], the “BRM Max % Inhibition” value was above 90% and the IC50 fell in the range of 1 to 5 µM.

Turning to `CC(C)(C(N)=O)c1cccc(C(=O)NCC(=O)Nc2nc(-c3cccc(-c4ccncc4)c3)cs2)c1` [Compound 84, 3-(1-amino-2-methyl-1-oxopropan-2-yl)-N-(2-oxo-2-((4-(3-(pyridin-4-yl)phenyl)thiazol-2-yl)amino)ethyl)benzamide], in test [1], the IC50 was in the range of 1 to 5 µM and the Emax was above 90%. Moreover, in test [2], the “BRM Max % Inhibition” value was above 95% and the IC50 fell in the range of 0.1 to 1 µM.

As to `CSCC[C@H](NC(=O)c1ccc2c(c1)C(C)(O)C(=O)N2)C(=O)Nc1nc(-c2ccccc2)cs1` (stereo partly drawn) [Compound 85, 3-hydroxy-3-methyl-N—((S)-4-(methylthio)-1-oxo-1-((4-phenylthiazol-2-yl)amino)butan-2-yl)-2-oxoindoline-5-carboxamide], in test [1], the IC50 is above 5 µM and the Emax is above 60%. Moreover, in test [2], the “BRM Max % Inhibition” value is listed as above 80% and the IC50 is above 5 µM.

`CC(C)(N)c1cccc(C(=O)NCC(=O)Nc2nc(-c3cccc(-c4ccncc4)c3)cs2)c1` [Compound 86, 3-(2-aminopropan-2-yl)-N-(2-oxo-2-((4-(3-(pyridin-4-yl)phenyl)thiazol-2-yl)amino)ethyl)benzamide]: in test [1], the IC50 is 1 to 5 µM and the Emax is above 60%. In test [2], the “BRM Max % Inhibition” value was above 80% and the IC50 is above 5 µM.

As to `CC(C)(C#N)c1cccc(C(=O)NCC(=O)Nc2nc(-c3cccc(-c4ccncc4)c3)cs2)c1` [Compound 87, 3-(2-cyanopropan-2-yl)-N-(2-oxo-2-((4-(3-(pyridin-4-yl)phenyl)thiazol-2-yl)amino)ethyl)benzamide], in test [1], the IC50 is above 5 µM and the Emax is below 30%. In test [2], the “BRM Max % Inhibition” value was above 80% and the IC50 lay in the range of 0.1 to 1 µM.

As for `Cc1cc(C)c(C(C)(C)CN)cc1C(=O)NCC(=O)Nc1nc(-c2cccc(-c3ccncc3)c2)cs1` [Compound 89], in test [1], the IC50 was above 5 µM and the Emax was above 30%. In addition, in test [2], the “BRM Max % Inhibition” value was above 80% and the IC50 lay within 1 to 5 µM.

With `Cc1cc(-c2cccc(-c3csc(NC(=O)CNC(=O)c4cccc(C(C)(C)C(C)C)c4)n3)c2)cc(C)n1` [Compound 90], in test [1], the IC50 was above 5 µM and the Emax was below 30%. Also, in test [2], the “BRM Max % Inhibition” value was above 60% and the IC50 was 1 to 5 µM.

With `C[C@H](N)C(C)(C)c1cccc(C(=O)NCC(=O)Nc2nc(-c3cccc(-c4ccncc4)c3)cs2)c1` [Compound 91], in test [1], the IC50 is above 5 µM and the Emax is above 30%. Further, in test [2], the “BRM Max % Inhibition” value is above 50% and the IC50 was in the range of 1 to 5 µM.

For `Cc1cc(-c2cccc(-c3csc(NC(=O)CNC(=O)c4ccc(C)c(C(C)(C)CN)c4)n3)c2)cc(C)n1` [Compound 92], in test [1], the IC50 lay within 0.1 to 1 µM and the Emax is above 95%. For the same compound, in test [2], the “BRM Max % Inhibition” value is above 95% and the IC50 was below 0.1 µM.

With `Cc1cc(-c2cccc(-c3csc(NC(=O)CNC(=O)c4cccc(C(C)(C)CO)c4)n3)c2)nc(C)n1` [Compound 93], in test [1], the IC50 lay within 0.1 to 1 µM and the Emax was above 90%. For the same compound, in test [2], the “BRM Max % Inhibition” value is recorded as above 95% and the IC50 was below 0.1 µM.

Consider `Cc1cc(-c2cccc(-c3csc(NC(=O)CNC(=O)c4cccc(C(C)(C)CO)c4)n3)c2)nc(C)n1` [Compound 94], for which, in test [1], the “BRG1 Max % Inhibition” value is recorded as above 95% and the IC50 was below 0.1 µM. For the same compound, in test [2], the “BRM Max % Inhibition” value is recorded as above 95% and the IC50 was below 0.1 µM.
